In ChEMBL document CHEMBL1155520, “Novel 8a-aza-8a-homoerythromycin--4''-(3-substituted-amino)propionates with broad spectrum antibacterial activity” (2010):
In brackets after ≈: the same amount, converted by molar mass.

Experiments:
Type in all cases: functional
Haemophilus influenzae = assay: Antimicrobial activity against Haemophilus influenzae ATCC 49247
Streptococcus pyogenes [1] = assay: Antimicrobial activity against inducible macrolide and constitutive lincosamide, streptogramin-resistant Streptococcus pyogenes 166 GR-micro
Streptococcus pneumoniae [2] = assay: Antimicrobial activity against inducible macrolide, lincosamide, streptogramin-resistant Streptococcus pneumoniae 134 GRM
Staphylococcus aureus [3] = assay: Antimicrobial activity against macrolide-sensitive Staphylococcus aureus ATCC 13709
Streptococcus pyogenes [4] = assay: Antimicrobial activity against inducible macrolide-resistant Streptococcus pyogenes Finland 3
Staphylococcus aureus [5] = assay: Antimicrobial activity against macrolide-sensitive Staphylococcus aureus PK1
Streptococcus pyogenes [6] = assay: Antimicrobial activity against inducible macrolide, lincosamide, streptogramin-resistant Streptococcus pyogenes Finland 11
Streptococcus pneumoniae [7] = assay: Antimicrobial activity against macrolide-resistant Streptococcus pneumoniae Ci137
Streptococcus pneumoniae [8] = assay: Antimicrobial activity against inducible macrolide and constitutive lincosamide, streptogramin-resistant Streptococcus pneumoniae 58 Spain
Streptococcus pneumoniae [9] = assay: Antimicrobial activity against macrolide-sensitive Streptococcus pneumoniae SPO 30
Streptococcus pneumoniae [10] = assay: Antimicrobial activity against inducible macrolide and constitutive lincosamide, streptogramin-resistant Streptococcus pneumoniae 4636
Streptococcus pyogenes [11] = assay: Antimicrobial activity against macrolide-sensitive Streptococcus pyogenes 3665

CC[C@H]1OC(=O)[C@H](C)[C@@H](O[C@H]2C[C@@](C)(OC)[C@@H](OC(=O)CCNCCNc3cc4c(cc3F)c(=O)c(C(=O)O)cn4C3CC3)[C@H](C)O2)[C@H](C)[C@@H](O[C@@H]2O[C@H](C)C[C@H](N(C)C)[C@H]2O)[C@](C)(OC)C[C@@H](C)NC(=O)[C@H](C)[C@@H](O)[C@]1(C)O
MIC (Haemophilus influenzae): 4 µg/mL (≈ 3.56 µM) | MIC (Streptococcus pyogenes [1]): 0.25 µg/mL (≈ 0.223 µM) | MIC (Streptococcus pneumoniae [2]): < 0.13 µg/mL | MIC (Staphylococcus aureus [3]): < 0.13 µg/mL | MIC (Streptococcus pyogenes [4]): 0.5 µg/mL (≈ 0.445 µM) | MIC (Staphylococcus aureus [5]): < 0.13 µg/mL | MIC (Streptococcus pyogenes [6]): < 0.13 µg/mL | MIC (Streptococcus pneumoniae [7]): < 0.13 µg/mL | MIC (Streptococcus pneumoniae [8]): < 0.13 µg/mL

NCCNc1cc2c(cc1F)c(=O)c(C(=O)O)cn2C1CC1
MIC (Haemophilus influenzae): > 64 µg/mL | MIC (Streptococcus pyogenes [1]): > 64 µg/mL | MIC (Streptococcus pneumoniae [2]): > 64 µg/mL | MIC (Staphylococcus aureus [3]): > 64 µg/mL | MIC (Streptococcus pyogenes [4]): > 64 µg/mL | MIC (Staphylococcus aureus [5]): > 64 µg/mL | MIC (Streptococcus pyogenes [6]): > 64 µg/mL | MIC (Streptococcus pneumoniae [7]): > 64 µg/mL | MIC (Streptococcus pneumoniae [8]): > 64 µg/mL

CC[C@H]1OC(=O)[C@H](C)[C@@H](O[C@H]2C[C@@](C)(OC)[C@@H](OC(=O)CCN3CCN(c4cc5c(cc4F)c(=O)c(C(=O)O)cn5C4CC4)CC3)[C@H](C)O2)[C@H](C)[C@@H](O[C@@H]2O[C@H](C)C[C@H](N(C)C)[C@H]2O)[C@](C)(OC)C[C@@H](C)NC(=O)[C@H](C)[C@@H](O)[C@]1(C)O
MIC (Haemophilus influenzae): 1 µg/mL (≈ 0.871 µM) | MIC (Streptococcus pyogenes [1]): 8 µg/mL (≈ 6.97 µM) | MIC (Streptococcus pneumoniae [2]): 8 µg/mL (≈ 6.97 µM) | MIC (Staphylococcus aureus [3]): 1 µg/mL (≈ 0.871 µM) | MIC (Streptococcus pyogenes [4]): 0.5 µg/mL (≈ 0.435 µM) | MIC (Staphylococcus aureus [5]): 2 µg/mL (≈ 1.74 µM) | MIC (Streptococcus pyogenes [6]): 0.5 µg/mL (≈ 0.435 µM) | MIC (Streptococcus pneumoniae [7]): < 0.13 µg/mL | MIC (Streptococcus pneumoniae [8]): 16 µg/mL (≈ 13.9 µM)

CC[C@H]1OC(=O)[C@H](C)[C@@H](O[C@H]2C[C@@](C)(OC)[C@@H](O)[C@H](C)O2)[C@H](C)[C@@H](O[C@@H]2O[C@H](C)C[C@H](N(C)C)[C@H]2O)[C@](C)(O)C[C@@H](C)CN(C)[C@H](C)[C@@H](O)[C@]1(C)O [AZITHROMYCIN]
MIC (Haemophilus influenzae): 1 µg/mL (≈ 1.34 µM) | MIC (Streptococcus pyogenes [1]): > 64 µg/mL | MIC (Streptococcus pneumoniae [2]): > 64 µg/mL | MIC (Staphylococcus aureus [3]): 0.5 µg/mL (≈ 0.668 µM) | MIC (Streptococcus pyogenes [4]): 8 µg/mL (≈ 10.7 µM) | MIC (Staphylococcus aureus [5]): > 64 µg/mL | MIC (Streptococcus pyogenes [6]): 16 µg/mL (≈ 21.4 µM) | MIC (Streptococcus pneumoniae [7]): 8 µg/mL (≈ 10.7 µM) | MIC (Streptococcus pneumoniae [9]): < 0.13 µg/mL | MIC (Streptococcus pneumoniae [10]): > 64 µg/mL | MIC (Streptococcus pneumoniae [8]): > 64 µg/mL | MIC (Streptococcus pyogenes [11]): < 0.13 µg/mL

CC[C@H]1OC(=O)[C@H](C)[C@@H](O[C@H]2C[C@@](C)(OC)[C@@H](O)[C@H](C)O2)[C@H](C)[C@@H](O[C@@H]2O[C@H](C)C[C@H](N(C)C)[C@H]2O)[C@](C)(O)C[C@@H](C)NC(=O)[C@H](C)[C@@H](O)[C@]1(C)O
MIC (Haemophilus influenzae): 2 µg/mL (≈ 2.67 µM) | MIC (Streptococcus pyogenes [1]): > 64 µg/mL | MIC (Streptococcus pneumoniae [2]): > 64 µg/mL | MIC (Staphylococcus aureus [3]): 1 µg/mL (≈ 1.34 µM) | MIC (Streptococcus pyogenes [4]): 32 µg/mL (≈ 42.7 µM) | MIC (Staphylococcus aureus [5]): > 64 µg/mL | MIC (Streptococcus pyogenes [6]): 16 µg/mL (≈ 21.4 µM) | MIC (Streptococcus pneumoniae [7]): 32 µg/mL (≈ 42.7 µM) | MIC (Streptococcus pneumoniae [9]): < 0.13 µg/mL | MIC (Streptococcus pneumoniae [10]): > 64 µg/mL | MIC (Streptococcus pneumoniae [8]): > 64 µg/mL | MIC (Streptococcus pyogenes [11]): < 0.13 µg/mL

CC[C@H]1OC(=O)[C@H](C)[C@@H](O[C@H]2C[C@@](C)(OC)[C@@H](O)[C@H](C)O2)[C@H](C)[C@@H](O[C@@H]2O[C@H](C)C[C@H](N(C)C)[C@H]2O)[C@](C)(OC)C[C@@H](C)NC(=O)[C@H](C)[C@@H](O)[C@]1(C)O
MIC (Haemophilus influenzae): 4 µg/mL (≈ 5.24 µM) | MIC (Streptococcus pyogenes [1]): > 64 µg/mL | MIC (Streptococcus pneumoniae [2]): > 64 µg/mL | MIC (Staphylococcus aureus [3]): 0.5 µg/mL (≈ 0.655 µM) | MIC (Streptococcus pyogenes [4]): 32 µg/mL (≈ 41.9 µM) | MIC (Staphylococcus aureus [5]): > 64 µg/mL | MIC (Streptococcus pyogenes [6]): 8 µg/mL (≈ 10.5 µM) | MIC (Streptococcus pneumoniae [7]): 16 µg/mL (≈ 21 µM) | MIC (Streptococcus pneumoniae [9]): < 0.13 µg/mL | MIC (Streptococcus pneumoniae [10]): > 64 µg/mL | MIC (Streptococcus pneumoniae [8]): > 64 µg/mL | MIC (Streptococcus pyogenes [11]): < 0.13 µg/mL

CC[C@H]1OC(=O)[C@H](C)[C@@H](O[C@H]2C[C@@](C)(OC)[C@@H](OC(=O)CCNCCNc3cc4c(cc3F)c(=O)c(C(=O)O)cn4C3CC3)[C@H](C)O2)[C@H](C)[C@@H](O[C@@H]2O[C@H](C)C[C@H](N(C)C)[C@H]2O)[C@](C)(O)C[C@@H](C)NC(=O)[C@H](C)[C@@H](O)[C@]1(C)O
MIC (Streptococcus pyogenes [1]): 0.25 µg/mL (≈ 0.226 µM) | MIC (Streptococcus pneumoniae [2]): < 0.13 µg/mL | MIC (Staphylococcus aureus [3]): 0.25 µg/mL (≈ 0.226 µM) | MIC (Streptococcus pyogenes [4]): 0.25 µg/mL (≈ 0.226 µM) | MIC (Staphylococcus aureus [5]): 0.5 µg/mL (≈ 0.451 µM) | MIC (Streptococcus pyogenes [6]): < 0.13 µg/mL | MIC (Streptococcus pneumoniae [7]): < 0.13 µg/mL | MIC (Streptococcus pneumoniae [8]): < 0.13 µg/mL

CC[C@H]1OC(=O)[C@H](C)[C@@H](O[C@H]2C[C@@](C)(OC)[C@@H](OC(=O)CCN3CCN(c4cc5c(cc4F)c(=O)ccn5C4CC4)CC3)[C@H](C)O2)[C@H](C)[C@@H](O[C@@H]2O[C@H](C)C[C@H](N(C)C)[C@H]2O)[C@](C)(O)C[C@@H](C)NC(=O)[C@H](C)[C@@H](O)[C@]1(C)O
MIC (Haemophilus influenzae): 8 µg/mL (≈ 7.34 µM) | MIC (Streptococcus pneumoniae [2]): > 32 µg/mL | MIC (Staphylococcus aureus [3]): 1 µg/mL (≈ 0.917 µM) | MIC (Streptococcus pyogenes [6]): 0.5 µg/mL (≈ 0.459 µM) | MIC (Streptococcus pneumoniae [7]): < 0.13 µg/mL | MIC (Streptococcus pneumoniae [8]): > 32 µg/mL

CC[C@H]1OC(=O)[C@H](C)C(=O)[C@H](C)[C@@H](O[C@@H]2O[C@H](C)C[C@H](N(C)C)[C@H]2O)[C@](C)(OC)C[C@@H](C)C(=O)[C@H](C)[C@H]2N(CCCCn3cnc(-c4cccnc4)c3)C(=O)O[C@]12C [TELITHROMYCIN]
MIC (Haemophilus influenzae): 2 µg/mL (≈ 2.46 µM) | MIC (Streptococcus pyogenes [1]): 16 µg/mL (≈ 19.7 µM) | MIC (Streptococcus pneumoniae [2]): 0.25 µg/mL (≈ 0.308 µM) | MIC (Staphylococcus aureus [3]): < 0.06 µg/mL | MIC (Streptococcus pyogenes [4]): 0.5 µg/mL (≈ 0.616 µM) | MIC (Staphylococcus aureus [5]): 0.125 µg/mL (≈ 0.154 µM) | MIC (Streptococcus pyogenes [6]): 0.06 µg/mL (≈ 0.0739 µM) | MIC (Streptococcus pneumoniae [7]): 0.25 µg/mL (≈ 0.308 µM) | MIC (Streptococcus pneumoniae [8]): 0.25 µg/mL (≈ 0.308 µM)

CC[C@H]1OC(=O)[C@H](C)[C@@H](O[C@H]2C[C@@](C)(OC)[C@@H](OC(=O)CCN3CCN(c4cc5c(cc4F)c(=O)ccn5C4CC4)CC3)[C@H](C)O2)[C@H](C)[C@@H](O[C@@H]2O[C@H](C)C[C@H](N(C)C)[C@H]2O)[C@](C)(OC)C[C@@H](C)NC(=O)[C@H](C)[C@@H](O)[C@]1(C)O
MIC (Haemophilus influenzae): 8 µg/mL (≈ 7.24 µM) | MIC (Streptococcus pyogenes [1]): > 64 µg/mL | MIC (Streptococcus pneumoniae [2]): > 64 µg/mL | MIC (Staphylococcus aureus [3]): 1 µg/mL (≈ 0.905 µM) | MIC (Streptococcus pyogenes [4]): < 0.13 µg/mL | MIC (Staphylococcus aureus [5]): 8 µg/mL (≈ 7.24 µM) | MIC (Streptococcus pyogenes [6]): 1 µg/mL (≈ 0.905 µM) | MIC (Streptococcus pneumoniae [7]): < 0.13 µg/mL | MIC (Streptococcus pneumoniae [8]): 64 µg/mL (≈ 58 µM)
